Assays:
[1] = tested on: human extrahepatic cholangiocarcinoma cell line (TFK-1 cell line); assay: Tumor growth-inhibitory effect in model subcutaneously transplanted with human extrahepatic cholangiocarcinoma cell line (TFK-1); type: in vivo; details: TFK-1 subcutaneous xenograft, nude mice; mesylate of compound A 1, 3, 10, 30, 100 mg/kg orally once a day for 14 days
Procedure: An antitumor effect produced by administration of compound A was evaluated with six nude mice in each group (CAnN.Cg-Foxn1^nu/CrlCrlj, female, Charles River Laboratories Japan, Inc.). The human-derived extrahepatic cholangiocarcinoma TFK-1 cell lines (Riken BioResource Center) were suspended in RPMI1640 medium (Wako Pure Chemical Industries, Ltd., supplemented with 10% FBS) at a concentration of 2×10^8 cells/mL and were mixed well. The cell suspension was further mixed with an equal amount of Matrigel basement membrane matrix (Corning Incorporated) to prepare a cell suspension at 1×10^8 cells/mL, and aliquots of 0.1 mL were subcutaneously transplanted into the right flank of each mouse. Seven days after transplantation, the longest diameter and the short axis of the tumors were measured by an electronic digital caliper (ABS Digimatic Caliper, Mitutoyo Corporation). The mice were divided into groups so that the average of tumor volumes of each group became approximately equal. In this regard, the tumor volume was calculated according to the following formula.
(§1) Tumor volume (mm^3)=longest diameter (mm)×short axis (mm)×short axis (mm)/2 […]
(§2) The tumor volume was measured on the day when the administration was started (Day 1), Day 4, Day 8, and Day 11, and the day following the last day of administration (Day 15). […]

[2] = tested on: human cholangiocarcinoma cell line (OZ cell line); assay: Tumor growth-inhibitory effect in model subcutaneously transplanted with human cholangiocarcinoma cell line (OZ); type: in vivo; details: OZ subcutaneous xenograft, nude mice; mesylate of compound A 1, 3, 10, 30, 100 mg/kg orally once a day for 14 days
Procedure: An antitumor effect produced by administration of compound A was evaluated with five nude mice in each group (CAnN.Cg-Foxn1^nu/CrlCrlj, female, Charles River Laboratories Japan, Inc.). The human-derived cholangiocarcinoma OZ cell lines (JCRB Cell Bank) were suspended in Williams'E (Sigma-Aldrich Corporation, supplemented with 2 mmol/L L-glutamine and 10% FBS) at a concentration of 2×10^8 cells/mL and were mixed well. The cell suspension was further mixed with an equal amount of Matrigel basement membrane matrix (Corning Incorporated) to prepare a cell suspension at 1×10^8 cells/mL, and aliquots of 0.1 mL were subcutaneously transplanted into the right flank of each mouse. Thirteen days after transplantation, the longest diameter and the short axis of the tumors were measured by an electronic digital caliper (ABS Digimatic Caliper, Mitutoyo Corporation). The mice were divided into groups so that the average of tumor volumes of each group became approximately equal. In this regard, the tumor volume was calculated according to the following formula.
as §1
The tumor volume was measured on the day when the administration was started (Day 1), Day 5, Day 8, and Day 12, and the clay following the last day of administration (Day 15). […]

[3] = tested on: human carcinoma of the ampulla of Vater cell line (SNU-869 cell line); assay: Tumor growth-inhibitory effect in model subcutaneously transplanted with human carcinoma of the ampulla of Vater cell line (SNU-869); type: in vivo; details: SNU-869 subcutaneous xenograft, nude mice; mesylate of compound A 1, 3, 10, 30, 100 mg/kg orally once a day for 14 days
Procedure: An antitumor effect produced by administration of compound A was evaluated with six nude mice in each group (CAnN.Cg-Foxn1^nu/CrlCrlj, female, Charles River Laboratories Japan, Inc.). The human-derived human carcinoma of the ampulla of Vater SNU-869 cell lines (Creative Bioarray) were suspended in RPMI1640 medium (Wako Pure Chemical Industries, Ltd., supplemented with 25 mM HEPES and 10% FBS) at a concentration of 2×10^8 cells/mL and were mixed well. The cell suspension was further mixed with an equal amount of Matrigel basement membrane matrix (Corning Incorporated) to prepare a cell suspension at 1×10^8 cells/mL, and aliquots of 0.1 mL were subcutaneously transplanted into the right flank of each mouse. Seven days after transplantation, the longest diameter and the short axis of the tumors were measured by an electronic digital caliper (ABS Digimatic Caliper, Mitutoyo Corporation). The mice were divided into groups so that the average of tumor volumes of each group became approximately equal. In this regard, the tumor volume was calculated according to the following formula.
as §1, §2

[4] = tested on: unresectable biliary tract cancer; assay: Multicenter, unblinded, phase II clinical trial in patients with unresectable biliary tract cancer after combination chemotherapy involving gemcitabine (interim analysis); type: in vivo, human
Text: This clinical trial was a multicenter, single-group, unblinded clinical trial for patients with a prior treatment history who had received one regimen using two-drug combination chemotherapy involving gemcitabine (two-drug combination chemotherapy using gemcitabine and cisplatin, or gemcitabine and another platinum-based drug or a fluorinated pyrimidine drug) for their unresectable biliary tract cancers.
This clinical trial was composed of three periods, which were a pretreatment period, an administration period, and a follow-up period. During the pretreatment period, screening was performed within 21 days. The administration period was composed of administration of mesylate of compound A as an investigational drug in each cycle and tumor assessment performed every 6 to 8 weeks. The follow-up period was started immediately after the day when administration was discontinued and was continued while the subject was alive until withdrawal of consent by the subject or completion of the clinical trial.
The investigational drug, mesylate of compound A, was administered orally once a day in a cycle of 28 days at a dose of 24 mg in terms of compound A in free form, and administration was continued until disease progression, an unacceptable adverse event, withdrawal of consent by the subject, or the like occurred.
The primary objective of the clinical trial was to determine an objective response rate (ORR) of the investigational drug for patients with an unresectable biliary tract cancer after combination chemotherapy involving gemcitabine.
The secondary objective of the clinical trial was to determine a progression-free survival (PFS), an overall survival (OS), a disease control rate (DCR), a clinical benefit rate (CBR), adverse events (AEs), and the number of subjects who developed serious adverse events (SAEs), and a blood concentration. In this context, ORR is defined as a rate of subjects with their best overall response (BOR) being complete response (CR) or partial response (PR). […]

COc1cc2nccc(Oc3ccc(NC(=O)NC4CC4)c(Cl)c3)c2cc1C(N)=O [compound A, 4-[3-chloro-4-(cyclopropylaminocarbonyl)aminophenoxy]-7-methoxy-6-quinolinecarboxamide]
antitumor effect (tumor volume on Day 15 vs control) [1]: dose-dependent antitumor effect | antitumor effect (tumor volume on Day 15 vs control) [2]: dose-dependent antitumor effect | antitumor effect (tumor volume on Day 15 vs control) [3]: dose-dependent antitumor effect | stable disease (SD, 6 weeks or more), percentage of patients ([4]; 17 patients, mesylate of compound A orally once a day, 24 mg in terms of free form, 28-day cycles, 13 patients): 76.5% | partial response (PR), percentage of patients ([4]; 17 patients, mesylate of compound A orally once a day, 24 mg in terms of free form, 28-day cycles, one patient): 5.9% | tendency for tumor regression, number of patients ([4]; among 13 SD patients, 24 mg orally once a day): 8 patients

— US20190000829A1, “THERAPEUTIC AGENT FOR BILIARY TRACT CANCER” (Eisai R&D Management Co., Ltd., priority 2015, published 2019)
